Holding throughout (assay): DTP human tumour cell line panel, 48 h
Assay [1] relates to 786-0.
Assay [2] concerns A549.
For assay [3], the system named is ACHN.
Assay [4] concerns CCRF-CEM.
For assay [5], the system named is DU-145.
The test system of assay [6] is HCT-15.
The test system of assay [7] is HL-60.
The subject of assay [8] is IGROV-1.
Assay [9] concerns KM12.
The subject of assay [10] is M14.
In assay [11] the test system is MCF7.
The test system of assay [12] is MDA-MB-231.
The test system of assay [13] is NCI/ADR-RES.
Assay [14] deals with OVCAR-3.
In assay [15] the test system is RPMI-8226.
Assay [16] concerns SK-MEL-28.
The subject of assay [17] is SNB-75.
For assay [18], the system named is UO-31.
For assay [19], the system named is Malme-3M.
The subject of assay [20] is Hs-578T.

As a reminder, the GI50 is the concentration at which growth is held to half of that of the control.

Each structure is given as a SMILES string.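 Cells were grown in 96-well plates and exposed to each compound for 48 hours at five concentrations; endpoints were interpolated linearly between bracketing concentrations, or set to the highest concentration if not reached. The concentration for 50% growth inhibition is given as GI50.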 Active and inactive are the calls of the source. Cut-off read from the data, not from the text of the source: active = GI50 up to about 1.1 µM and inactive = higher.

As for `CC(C)(C)[Si](C)(C)OCC1OC(n2ccc(=O)[nH]c2=O)C(O[Si](C)(C)C(C)(C)C)[C@@]12O[C@H]2C(N)=O` (stereo partly drawn), the GI50 in assay [1] is 5.11 µM (inactive); in [2], 5.75 µM (inactive); in assay [3] it was 6.05 µM (inactive); in assay [4], > 10 µM (inactive); in [5], 4.03 µM (inactive); in assay [6], 5.38 µM. Also, the GI50 was 96.6 µM (inactive) in [7]; 2.86 µM (inactive) in assay [8]; 7.67 µM (inactive) in assay [9]; 11.3 µM (inactive) in assay [10]; 3.97 µM (inactive) in assay [11]; 4.61 µM (inactive) in assay [12]. For the same compound, the GI50 in [13] was 8.57 µM (inactive); in [14] it was 11.5 µM (inactive); in assay [15] it was 6.17 µM (inactive); in assay [16], 17.6 µM (inactive); in [17], 10.1 µM (inactive); in assay [18] it was 7.36 µM (inactive).
For the compound `N#CC12CNCC1CN=N2` (stereo not drawn), the GI50 was > 100 µM (inactive) in assay [1]; > 100 µM (inactive) in [2]; > 100 µM (inactive) in assay [3]; > 100 µM (inactive) in [4]; > 100 µM (inactive) in [5]; > 100 µM in [6]. For the same compound, the GI50 in assay [7], in assay [8], in [9], in assay [11], in assay [12] and in assay [19] was > 100 µM (inactive) each time. Moreover, the GI50 in assay [13], in [14], in assay [16], in assay [17] and in [18] was > 100 µM (inactive) in each case.
With `C[C@@H]1CC[C@]2(C)C3(C)CC[C@]2(OC3=O)[C@@]12CC(c1ccoc1)OC2=O` (stereo partly drawn), the GI50 is 20.5 µM (inactive) in assay [1]; > 100 µM (inactive) in [2]; 22.4 µM (inactive) in assay [3]; 22.8 µM (inactive) in assay [4]; > 100 µM (inactive) in assay [5]; 31.4 µM in assay [6]. Further, the GI50 in assay [7] is 21.6 µM (inactive); in [20], 54.2 µM (inactive); in assay [8], 26.9 µM (inactive); in assay [9], > 100 µM (inactive); in assay [10], 25.1 µM (inactive); in assay [11] it was 61 µM (inactive). Further, the GI50 is 21.1 µM (inactive) in [19]; 49.3 µM (inactive) in [13]; 26.2 µM (inactive) in [14]; 38.2 µM (inactive) in [15]; 26.7 µM (inactive) in [16]; 28 µM (inactive) in assay [18].
As for `O=C1CC[C@@]2(O)[C@H]3Cc4ccc(-c5ccccc5)c5c4[C@@]2(CCN3CC2CC2)[C@H]1O5`, the GI50 in assay [1] is 15.8 µM (inactive); in [2], 20.6 µM (inactive); in [3], 20.6 µM (inactive); in [4], 24.4 µM (inactive); in assay [5], 23.3 µM (inactive); in assay [6], 16.8 µM. In addition, the GI50 in assay [7] was 17.9 µM (inactive); in assay [8], 27.2 µM (inactive); in [9], 18.9 µM (inactive); in assay [10], 17.6 µM (inactive); in assay [11] it was 18.2 µM (inactive); in assay [12], 15.2 µM (inactive). The GI50 was 15.5 µM (inactive) in assay [19]; 16.3 µM (inactive) in assay [13]; 18.1 µM (inactive) in assay [14]; 15.4 µM (inactive) in assay [15]; 42.4 µM (inactive) in [16]; 16.1 µM (inactive) in assay [18].
Turning to `C/C(=N\Nc1nc2ccccc2[nH]1)c1ncccn1`, the GI50 in assay [1] was 0.0238 µM (active); in [2], 0.0682 µM (active); in assay [3] it was < 0.0232 µM (active); in [4], 0.0303 µM (active); in assay [6] it was 0.0302 µM; in assay [7], < 0.01 µM (active). Further, the GI50 in [20] is 12.1 µM (inactive); in assay [8], < 0.031 µM (active); in assay [9], 0.136 µM (active); in assay [10], 0.0417 µM (active); in assay [11], 0.0321 µM (active); in assay [12], 0.059 µM (active). Also, the GI50 in assay [19] is < 0.0243 µM (active); in assay [13] it was 0.0608 µM (active); in assay [14], 0.871 µM (active); in assay [15], 0.0585 µM (active); in assay [16], 0.0948 µM (active); in assay [17], 0.119 µM (active). In assay [18], the GI50 was < 0.0202 µM (active).
For the compound `CC(=O)OC1CC[C@@]2(C)C(C1)CC(OC(C)=O)[C@@H]1C2CC(OC(C)=O)[C@]2(C)C(C(C)CC=C(c3ccc(Cl)cc3)c3ccc(Cl)cc3)CCC12` (stereo partly drawn), the GI50 in assay [1] is > 100 µM (inactive); in [2] it was 64 µM (inactive); in [3], 23.3 µM (inactive); in assay [4] it was 16.3 µM (inactive); in [6], 38.1 µM; in assay [7] it was 4.7 µM (inactive). The GI50 in assay [20] is 25.9 µM (inactive); in [8], > 100 µM (inactive); in assay [9], 64 µM (inactive); in assay [10] it was 80.4 µM (inactive); in [11], 38.8 µM (inactive); in assay [12], 48 µM (inactive). For the same compound, the GI50 is > 100 µM (inactive) in assay [13]; 5.33 µM (inactive) in [15]; > 100 µM (inactive) in [16]; 49.5 µM (inactive) in assay [17]; 56.2 µM (inactive) in assay [18].
Regarding `O=C1OC2C(O)C(=O)OC2C1O` (stereo not drawn), the GI50 in assay [1] was > 100 µM (inactive); in assay [2], > 100 µM (inactive); in assay [3], > 100 µM (inactive); in assay [4] it was > 100 µM (inactive); in assay [5], > 100 µM (inactive); in [6] it was > 100 µM. Also, the GI50 in [7], in assay [8], in assay [9], in assay [10], in assay [11] and in [12] was > 100 µM (inactive) throughout. Moreover, the GI50 in assay [19] was > 100 µM (inactive); in assay [13] it was > 100 µM (inactive); in assay [14] it was > 100 µM (inactive); in assay [16], > 100 µM (inactive); in assay [17], 95.3 µM (inactive); in assay [18], > 100 µM (inactive).
For the compound `Cc1cc(C)nc(NS(=O)(=O)c2ccc(Nc3nncc(=O)n3N)cc2)n1`, the GI50 in assay [1] is 15.8 µM (inactive); in assay [2], 34.8 µM (inactive); in assay [3], 33.7 µM (inactive); in assay [4], 3.62 µM (inactive); in assay [5], 34.3 µM (inactive); in [6] it was 14.5 µM. Also, the GI50 is 17.4 µM (inactive) in assay [7]; 29.6 µM (inactive) in [20]; 15.1 µM (inactive) in assay [8]; 36.2 µM (inactive) in assay [9]; 34.8 µM (inactive) in [10]; 16.7 µM (inactive) in [11]. For the same compound, the GI50 in assay [19] was 19.2 µM (inactive); in assay [13], 23.6 µM (inactive); in [14], 16.3 µM (inactive); in assay [15], 9.44 µM (inactive); in assay [16], 26.5 µM (inactive); in [18] it was 19.3 µM (inactive).
For the compound `C=C1C(=O)O[C@H]2C1C[C@@H](OC(C)=O)/C(C)=C/CC[C@@]1(C)O[C@H]21` (stereo partly drawn), the GI50 in assay [1] was 11.5 µM (inactive); in [2], 49.7 µM (inactive); in assay [3] it was 4.33 µM (inactive); in assay [4], 1.77 µM (inactive); in assay [5] it was 14.6 µM (inactive); in [6] it was 6.53 µM. Further, the GI50 in [20] was 26.1 µM (inactive); in [8], 7.67 µM (inactive); in assay [9], 21.8 µM (inactive); in [10] it was 0.687 µM (active); in assay [11], 10.3 µM (inactive); in [19], 4.36 µM (inactive). Besides, the GI50 was 11 µM (inactive) in assay [13]; 2.27 µM (inactive) in assay [15]; 10.7 µM (inactive) in [16]; 28.2 µM (inactive) in assay [17]; 4.91 µM (inactive) in assay [18].
In the case of `COc1ccc2c(c1)N=C1CSC(c3cccc(Br)c3)N1C2` (stereo not drawn), the GI50 in assay [1] was 17.4 µM (inactive); in [2] it was 16.6 µM (inactive); in [3], 13.3 µM (inactive); in [6], 6.14 µM; in [7], 9.51 µM (inactive); in [20], 26.3 µM (inactive). Further, the GI50 in assay [8] was 18.6 µM (inactive); in assay [9], 10.9 µM (inactive); in assay [10], 16.6 µM (inactive); in assay [11], 6.59 µM (inactive); in assay [12] it was 17.8 µM (inactive); in [19], 18 µM (inactive). Also, the GI50 was 6.98 µM (inactive) in [13]; 3.72 µM (inactive) in [15]; 32.8 µM (inactive) in [16]; 15.5 µM (inactive) in assay [17]; 12.6 µM (inactive) in assay [18].
`C=CCOC(=O)C[C@H](NC(=O)[C@H](Cc1ccc(O)cc1)NCC(F)(F)F)C(=O)OCC=C`: the GI50 is > 100 µM (inactive) in assay [1]; > 100 µM (inactive) in assay [2]; > 100 µM (inactive) in [3]; > 100 µM in [6]; 41.7 µM (inactive) in assay [20]; > 100 µM (inactive) in assay [8]. The GI50 in [9] was > 100 µM (inactive); in assay [10], 41.7 µM (inactive); in [11] it was 53.8 µM (inactive); in assay [12], 72.9 µM (inactive); in assay [19], 22.6 µM (inactive); in assay [13] it was > 100 µM (inactive). Further, the GI50 in assay [15] was 36.1 µM (inactive); in assay [16] it was 20.6 µM (inactive); in [17] it was 31.6 µM (inactive); in [18], > 100 µM (inactive).

The record behind these values is ChEMBL document CHEMBL1201862, “PubChem BioAssay data set” (2004).
